The values below are quoted from earlier work in PMC9297971 (Chembiochem, 2021).

Usually IC50 stands for the concentration that gives 50% inhibition.

This series has as its system HIV-1. To be noted: read-out: IC50 of clinically used T20; ref 15b, 36.

Take Enfuvirtide [T20]: the IC50 is 24 to 36 nM.
